“And” between values parts separate entries of the source, which are not always exact repeats. Equal values may be shown once.
Key:
[1] = Urinary excretion of BI 187004 (LC–MS/MS); format: in vivo, human
Text: For each accepted run, the acceptance criteria for the calibration standards and quality controls were met.

HPA axis = experiment: Total urinary corticosteroid excretion (aTHF + THF + UFF + UFE + THE); settings: for Total corticosteroids 0 – 24h (day 1) gMean (gCV [%]) / Total corticosteroids % of baseline 0 – 24h (day 1)/-24 – 0h (day -1) gMean (gCV): urine; for Total corticosteroids placebo corrected % change from baseline, adjusted gMean (90% CI) / Total corticosteroids placebo corrected % of baseline, adjusted gMean (90% CI): urine 0–24 h, ANCOVA
Method: The urinary samples for determination of urinary free cortisol (UFF), urinary free cortisone (UFE), urinary total cortisol (UTF), urinary total cortisone (UTE), and their metabolites 5alpha- or allo-tetrahydrocortisol (aTHF), 5beta-tetrahydrocortisol (THF), and tetrahydrocortisone (THE) were analyzed using a validated LC–MS/MS method.
The placebo corrected percentage change from baseline of the data shown in Supplementary Table 1 and 2 was analyzed statistically by an ANCOVA model with baseline as covariate on the logarithmic scale.

[2] = system: hypothalamus–pituitary–adrenal axis hormones; experiment: Hormones of the HPA axis: difference from baseline; format: in vivo, human
Method: Safety and tolerability of BI 187004 were assessed in a descriptive way using the following investigations: recording of adverse events, clinical laboratory parameters (haematology, coagulation, enzymes, substrates, electrolytes, hormones, and urinalysis), vital signs (blood pressure, puls rate), 12-lead ECG (electrocardiogram) with special attention to QTc prolongation, and physical examination (occurrence of findings).

N#Cc1ccc2c(c1)[C@H]1CCCN(C(=O)c3ccc4[nH]cnc4c3)[C@H]1C2 [BI 187004]
Fraction of dose excreted in urine (renal excretion), range across dose groups ([1]; 0–72 h collection interval): 3–5% and 3.00–4.93% | fe0-72 h (fraction eliminated in urine from 0 to 72 h) ([1]; 5 mg single oral dose): 3.00% | fe0-72 h (fraction eliminated in urine from 0 to 72 h) ([1]; 10 mg single oral dose): 4.03% | fe0-72 h (fraction eliminated in urine from 0 to 72 h) ([1]; 20 mg single oral dose): 4.93% | fe0-72 h (fraction eliminated in urine from 0 to 72 h) ([1]; 40 mg single oral dose): 4.21% | fe0-72 h (fraction eliminated in urine from 0 to 72 h) ([1]; 80 mg single oral dose): 4.55% | fe0-72 h (fraction eliminated in urine from 0 to 72 h) ([1]; 160 mg single oral dose): 4.75% | fe0-72 h (fraction eliminated in urine from 0 to 72 h) ([1]; 240 mg single oral dose): 4.88% | fe0-72 h (fraction eliminated in urine from 0 to 72 h) ([1]; 360 mg single oral dose): 4.25% | Total corticosteroids 0 – 24h (day 1) gMean (gCV [%]) (HPA axis; 2.5 mg): 16067.0 (18.128) μg | Total corticosteroids % of baseline 0 – 24h (day 1)/-24 – 0h (day -1) gMean (gCV) (HPA axis; 2.5 mg): 161.3 (44.4) % | Total corticosteroids placebo corrected % change from baseline, adjusted gMean (90% CI) (HPA axis; 2.5 mg): 30.3 (11.5, 52.2) 0.0062% | Total corticosteroids placebo corrected % of baseline, adjusted gMean (90% CI) (HPA axis; 2.5 mg): 130.3% and 130.3 (111.5, 152.2) % | Total corticosteroids 0 – 24h (day 1) gMean (gCV [%]) (HPA axis; 5 mg): 24324.0 (23.620) μg | Total corticosteroids % of baseline 0 – 24h (day 1)/-24 – 0h (day -1) gMean (gCV) (HPA axis; 5 mg): 179.9 (21.8) % | Total corticosteroids placebo corrected % change from baseline, adjusted gMean (90% CI) (HPA axis; 5 mg): 72.1 (47.7, 100.6) <0.0001% | Total corticosteroids placebo corrected % of baseline, adjusted gMean (90% CI) (HPA axis; 5 mg): 172.1 (147.7, 200.6) % | Total corticosteroids 0 – 24h (day 1) gMean (gCV [%]) (HPA axis; 10 mg): 23965.4 (24.142) μg | Total corticosteroids % of baseline 0 – 24h (day 1)/-24 – 0h (day -1) gMean (gCV) (HPA axis; 10 mg): 178.1 (24.5) % | Total corticosteroids placebo corrected % change from baseline, adjusted gMean (90% CI) (HPA axis; 10 mg): 69.9 (45.8, 98.1) <0.0001% | Total corticosteroids placebo corrected % of baseline, adjusted gMean (90% CI) (HPA axis; 10 mg): 169.9 (145.8, 198.1) % | Total corticosteroids 0 – 24h (day 1) gMean (gCV [%]) (HPA axis; 20 mg): 27240.6 (5.276) μg | Total corticosteroids % of baseline 0 – 24h (day 1)/-24 – 0h (day -1) gMean (gCV) (HPA axis; 20 mg): 174.7 (31.3) % | Total corticosteroids placebo corrected % change from baseline, adjusted gMean (90% CI) (HPA axis; 20 mg): 80.9 (54.9, 111.2) <0.0001% | Total corticosteroids placebo corrected % of baseline, adjusted gMean (90% CI) (HPA axis; 20 mg): 180.9 (154.9, 211.2) % | Total corticosteroids 0 – 24h (day 1) gMean (gCV [%]) (HPA axis; 40 mg): 24484.7 (17.661) μg | Total corticosteroids % of baseline 0 – 24h (day 1)/-24 – 0h (day -1) gMean (gCV) (HPA axis; 40 mg): 213.9 (24.4) % | Total corticosteroids placebo corrected % change from baseline, adjusted gMean (90% CI) (HPA axis; 40 mg): 86.6 (60.0, 117.5) <0.0001% | Total corticosteroids placebo corrected % of baseline, adjusted gMean (90% CI) (HPA axis; 40 mg): 186.6 (160.0, 217.5) % | Total corticosteroids 0 – 24h (day 1) gMean (gCV [%]) (HPA axis; 80 mg): 29884.0 (24.608) μg | Total corticosteroids % of baseline 0 – 24h (day 1)/-24 – 0h (day -1) gMean (gCV) (HPA axis; 80 mg): 189.7 (16.0) % | Total corticosteroids placebo corrected % change from baseline, adjusted gMean (90% CI) (HPA axis; 80 mg): 97.5 (69.1, 130.7) <0.0001% | Total corticosteroids placebo corrected % of baseline, adjusted gMean (90% CI) (HPA axis; 80 mg): 197.5% and 197.5 (169.1, 230.7) % | Total corticosteroids 0 – 24h (day 1) gMean (gCV [%]) (HPA axis; 160 mg): 25409.0 (28.223) μg | Total corticosteroids % of baseline 0 – 24h (day 1)/-24 – 0h (day -1) gMean (gCV) (HPA axis; 160 mg): 171.9 (13.1) % | Total corticosteroids placebo corrected % change from baseline, adjusted gMean (90% CI) (HPA axis; 160 mg): 72.8 (48.1, 101.6) <0.0001% | Total corticosteroids placebo corrected % of baseline, adjusted gMean (90% CI) (HPA axis; 160 mg): 172.8 (148.1, 201.6) % | Total corticosteroids 0 – 24h (day 1) gMean (gCV [%]) (HPA axis; 240 mg): 26872.4 (19.594) μg | Total corticosteroids % of baseline 0 – 24h (day 1)/-24 – 0h (day -1) gMean (gCV) (HPA axis; 240 mg): 174.5 (17.4) % | Total corticosteroids placebo corrected % change from baseline, adjusted gMean (90% CI) (HPA axis; 240 mg): 79.4 (53.7, 109.5) <0.0001% | Total corticosteroids placebo corrected % of baseline, adjusted gMean (90% CI) (HPA axis; 240 mg): 179.4 (153.7, 209.5) % | Total corticosteroids 0 – 24h (day 1) gMean (gCV [%]) (HPA axis; 360 mg): 26152.2 (30.046) μg | Total corticosteroids % of baseline 0 – 24h (day 1)/-24 – 0h (day -1) gMean (gCV) (HPA axis; 360 mg): 168.0 (28.0) % | Total corticosteroids placebo corrected % change from baseline, adjusted gMean (90% CI) (HPA axis; 360 mg): 73.8 (48.8, 102.9) <0.0001% | Total corticosteroids placebo corrected % of baseline, adjusted gMean (90% CI) (HPA axis; 360 mg): 173.8 (148.8, 202.9) % | Total urinary corticosteroid excretion (sum of UFF, UFE, aTHF, THF and THE), maximum across doses (HPA axis; placebo corrected % of baseline): up to 197.5% | ACTH mean difference from baseline ([2]; 2.5 mg single oral dose, 24:00): 0.59 pmol/L | Androstenedione mean difference from baseline ([2]; 2.5 mg single oral dose, 24:00): 0.2 nmol/L | Cortisol mean difference from baseline ([2]; 2.5 mg single oral dose, 24:00): -77.1 nmol/L | DHEA-s mean difference from baseline ([2]; 2.5 mg single oral dose, 24:00): 0.7 µmol/L | SHBG mean difference from baseline ([2]; 2.5 mg single oral dose, 24:00): 2.6 nmol/L | Total Testosterone mean difference from baseline ([2]; 2.5 mg single oral dose, 24:00): 0.1 nmol/L | ACTH mean difference from baseline ([2]; 2.5 mg single oral dose, 96:00): -0.46 pmol/L | Androstenedione mean difference from baseline ([2]; 2.5 mg single oral dose, 96:00): -1.8 nmol/L | Cortisol mean difference from baseline ([2]; 2.5 mg single oral dose, 96:00): -65.3 nmol/L | DHEA-s mean difference from baseline ([2]; 2.5 mg single oral dose, 96:00): 2.1 µmol/L | SHBG mean difference from baseline ([2]; 2.5 mg single oral dose, 96:00): -0.1 nmol/L | Total Testosterone mean difference from baseline ([2]; 2.5 mg single oral dose, 96:00): -0.3 nmol/L | ACTH mean difference from baseline ([2]; 5 mg single oral dose, 24:00): 0.53 pmol/L | Androstenedione mean difference from baseline ([2]; 5 mg single oral dose, 24:00): 1.2 nmol/L | Cortisol mean difference from baseline ([2]; 5 mg single oral dose, 24:00): 1.8 nmol/L | DHEA-s mean difference from baseline ([2]; 5 mg single oral dose, 24:00): 1.6 µmol/L | SHBG mean difference from baseline ([2]; 5 mg single oral dose, 24:00): 3.0 nmol/L | Total Testosterone mean difference from baseline ([2]; 5 mg single oral dose, 24:00): -0.9 nmol/L | ACTH mean difference from baseline ([2]; 5 mg single oral dose, 96:00): -1.65 pmol/L | Androstenedione mean difference from baseline ([2]; 5 mg single oral dose, 96:00): -3.7 nmol/L | Cortisol mean difference from baseline ([2]; 5 mg single oral dose, 96:00): -75.0 nmol/L | DHEA-s mean difference from baseline ([2]; 5 mg single oral dose, 96:00): 0.9 µmol/L | SHBG mean difference from baseline ([2]; 5 mg single oral dose, 96:00): 2.7 nmol/L | Total Testosterone mean difference from baseline ([2]; 5 mg single oral dose, 96:00): -0.7 nmol/L | ACTH mean difference from baseline ([2]; 10 mg single oral dose, 24:00): 0.78 pmol/L | Androstenedione mean difference from baseline ([2]; 10 mg single oral dose, 24:00): 1.3 nmol/L | Cortisol mean difference from baseline ([2]; 10 mg single oral dose, 24:00): -78.7 nmol/L | DHEA-s mean difference from baseline ([2]; 10 mg single oral dose, 24:00): 1.2 µmol/L | SHBG mean difference from baseline ([2]; 10 mg single oral dose, 24:00): 3.4 nmol/L | Total Testosterone mean difference from baseline ([2]; 10 mg single oral dose, 24:00): -0.2 nmol/L | ACTH mean difference from baseline ([2]; 10 mg single oral dose, 96:00): -1.35 pmol/L | Androstenedione mean difference from baseline ([2]; 10 mg single oral dose, 96:00): -3.4 nmol/L | Cortisol mean difference from baseline ([2]; 10 mg single oral dose, 96:00): -128.8 nmol/L | DHEA-s mean difference from baseline ([2]; 10 mg single oral dose, 96:00): 1.9 µmol/L

Source: publication PMC8364686, “Safety, tolerability, pharmacokinetics and pharmacodynamics of single oral doses of BI 187004, an inhibitor of 11beta-hydroxysteroid dehydrogenase-1, in healthy male volunteers with overweight or obesity” (Clinical Diabetes and Endocrinology, 2021)
